In patent US6372776B1, “Crystalline(−)-3R,4R-trans-7-methoxy-2,2-dimethyl-3-phenyl-4-{4-[2-(pyrrolidin-1-yl)ethoxy]phenyl}chromane, hydrogen maleate” (Novo Nordisk A/S, priority 1997, dated 2002):

Assays:
solubility in water = format: physicochemical
hygroscopicity = format: physicochemical
[1] = stability characteristics

Compound | solubility in water (solubility in water) | hygroscopicity (hygroscopicity) | bioavailability (bioavailability) | stability characteristics [1]
COc1ccc2c(c1)OC(C)(C)C(c1ccccc1)[C@@H]2c1ccc(OCCN2CCCC2)cc1 (single isomer, unassigned; (-)) [free base, (−)-3R,4R-trans-7-methoxy-2,2-dimethyl-3-phenyl-4-{4-[2-(pyrrolidin-1-yl)ethoxy]phenyl}chromane] | very poor | – | – | –
(−)-3R,4R-trans-7-methoxy-2,2-dimethyl-3-phenyl-4-{4-[2-(pyrrolidin-1-yl)ethoxy]phenyl}chromane, hydrogen maleate [hydrogen maleate salt] | – | non-hygroscopic | good | good
